From article PMC6697720, “Saturation of acyl chains converts cardiolipin from an antagonist to an activator of Toll-like receptor-4” (Cellular and Molecular Life Sciences: CMLS, 2019)

Experiments:
[1] = test system: human PBMCs; assay: LPS-induced TNF-α and IL-1β release in human PBMCs; format: cell-based; details: LPS 100 ng/mL
Procedure: Blood from healthy volunteers was collected upon informed consent. PBMCs were obtained by Ficoll gradient centrifugation in Histopaque-1077 (Sigma-Aldrich, St Louis, Missouri, United States) using SepMate™ isolation tubes from STEMCELL™ according to the manufacturer’s instructions. Isolated PBMCs were resuspended in RPMI 1640 supplemented with 10% heat-inactivated FBS.
(§1) 100.000 of freshly isolated PBMCs or monocytes were mixed with stimulants to a final volume of 160 μL/well in round bottom 96-well plates.
(§2) After stimulation, supernatants were collected, centrifuged, and assayed for cytokine secretion, while cells were assayed for viability.
TNF-α and IP-10 were quantified in cell supernatants using DuoSet ELISA kits from R&D Systems and human IL-1β using Instant ELISA™ Kit from Invitrogen, according to the manufacturer’s instructions. Absorbance was read with a BioTek Synergy HT Microplate Readers. […]

[2] = test system: primary human monocytes; assay: TNF-α and IL-1β secretion in primary human monocytes incubated with CL; format: cell-based; details: with NLRP3 inhibitor MCC950
Procedure: Human monocytes were isolated from PBMCs by immunomagnetic negative selection using the EasySep™ human monocyte enrichment kit without CD16 depletion (STEMCELL™ Technologies).
as §1, §2
TNF-α and IP-10 were quantified in cell supernatants using DuoSet ELISA kits from R&D Systems and human IL-1β using Instant ELISA™ Kit from Invitrogen, according to the manufacturer’s instructions. Absorbance was read with a BioTek Synergy HT Microplate Readers.
Fig. 3 Saturated but not unsaturated CLs have pro-inflammatory properties. a RAW-Blue™ cells were incubated overnight with the indicated amount of CL or LPS, supernatants were collected, and NF-κB activation quantified via Quanti-Blue™ test and reported here as fold induction as compared to control. Unpaired t test: differences with respect to the control (Ctrl) are not significant if p > 0.05 (no symbol); *p ≤ 0.0007. b Immortalized BMDM cells were incubated overnight with the indicated amount of CL or LPS; supernatants were collected and TNF-α quantified via ELISA assay. c, d Primary human monocytes were incubated overnight with the indicated amount of CL or LPS with or without the NLRP3 inhibitor MCC950, supernatants were collected, and TNF-α and IL-1β were quantified via ELISA assay. Graphs are representative of experiments from six different donors. Unpaired t test: differences with respect to the control (Ctrl) are not significant if p > 0.05 (no symbol); *p ≤ 0.021. Each bar represents the mean + standard deviation of three biological replicates (n = 3). Graphs are representative of at least three independent experiments
C18:0 and C18:2 CLs’ pro-inflammatory activities were validated in primary monocytes isolated from human donor blood. C18:0 CL but not C18:2 CL reproduced LPS activity inducing TNF-α and IL-1β secretion in a dose-dependent manner (Fig. 3c, d).

CC(C)(O)c1coc(S(=O)(=O)NC(=O)Nc2c3c(cc4c2CCC4)CCC3)c1 [MCC950]
inhibition of LPS-induced TNF-α secretion ([1]; 4 h): not | inhibition of LPS-induced IL-1β secretion ([1]; 16 h): able to inhibit | inhibition of saturated CL-induced IL-1β secretion [2]: inhibited
